Experimental findings from paper PMC9256790 (Molecular cancer therapeutics, 2022) are described below.

Data set [1] deals with MDA-MB-231 or MDA-MB-468 cells. Kind of data set: Colony formation assay. The settings on record: 1 to 4 nM; both TNBC cell lines. The format is cell-based, Human.
For another data set, the system named is MDA-MB-231/TxR. In words: Cell proliferation. Particulars: Homo sapiens, read-out: Mean IC50 ± SEM. The format is cell-based.
The next data set concerns cHCI-10. Kind of data set: Cell proliferation. The format is cell-based, Human. The settings on record: for proliferation of cHCI-10 cells: 10 nM, 5 days of treatment.
Data set [2] relates to MDA-MB-231 cells. Kind of data set: Immunofluorescence staining of microtubules. The class given is cell-based, Human. Particulars: 24 h.
The test system of another data set is MDA-MB-468/TxR. Kind of data set: Cell proliferation. The format is cell-based. Particulars: Homo sapiens, MDA-MB-468, read-out: Mean IC50 ± SEM.
Another data set concerns cHCI-2. Kind of data set: Cell proliferation. Particulars: for proliferation of cHCI-2 cells: 10 nM, 5 days of treatment. The class given is cell-based, Human.
For another data set, the system named is Mia PaCa-2. Kind of data set: Cell proliferation. The class given is cell-based. Particulars: Homo sapiens, MIA PaCa-2, read-out: Mean IC50 ± SEM.
A further data set concerns MDA-MB-468. In words: Cell proliferation. The class given is cell-based. The settings on record: Homo sapiens, MDA-MB-468, read-out: Mean IC50 ± SEM.
Data set [3] concerns MDA-MB-231 and MDA-MB-468 cells. Kind of data set: Cell cycle analysis. The format is cell-based, Human. Particulars: 10 nM; 24 h.
For the next data set, the system named is Mia PaCa-2/ColxR. Kind of data set: Cell proliferation. Particulars: Homo sapiens, MIA PaCa-2, read-out: Mean IC50 ± SEM. The format is cell-based.
Data set [4] deals with MDA-MB-231 cells. Kind of data set: Wound healing. The format is cell-based, Human. Particulars: 4 nM, 24 h.
In data set [5] the test system is orthotopic MDA-MB-231 xenografts. In words: Orthotopic MDA-MB-231 xenograft in comparison with CA4P. The class given is in vivo, mice.
Where [6] appears, read: Homo sapiens, 120 h, read-out: Mean IC50 ± SEM.

Regarding `CC(=O)O[C@H]1C(=O)[C@@]2(C)[C@H]([C@H](OC(=O)c3ccccc3)[C@]3(O)C[C@H](OC(=O)[C@H](O)[C@@H](NC(=O)c4ccccc4)c4ccccc4)C(C)=C1C3(C)C)[C@]1(OC(C)=O)CO[C@@H]1C[C@@H]2O` [Paclitaxel], the colony formation result in data set [1] was “robustly inhibited colony formation”. The IC50 in the data set with MDA-MB-231/TxR was 112 ± 37.8 nM; in the data set with cHCI-10 (setting [6]), 43.6 ± 8.2 nM; in the data set on MDA-MB-468/TxR it was 152 ± 23.8 nM; with cHCI-2 (setting [6]), 12.7 ± 5.8 nM; in the data set with Mia PaCa-2, 5.5 ± 0.6 nM; with MDA-MB-468, 2 ± 0.2 nM. For the same molecule, the IC50 with Mia PaCa-2/ColxR was 10.6 ± 1.1 nM. Moreover, the “proliferation of cHCI-10 cells” value with cHCI-10 is “no activity”. In the data set with MDA-MB-231 cells [2] (2.5 nM or 5 nM, interphase and mitotic phase), the microtubule structure result was “condensed microtubules”. Moreover, the “proliferation of cHCI-2 cells” value with cHCI-2 is listed as “reduced the proliferation”. For the same molecule, the cell cycle distribution entry in data set [3] was “arrested the cells into the M phase and the subG1 phase”.
Turning to `COc1cc2c(c(OC)c1OC)-c1ccc(OC)c(=O)cc1[C@@H](NC(C)=O)CC2` [Colchicine], in data set [1], the colony formation result is given as “no effect”. Further, the “proliferation of cHCI-10 cells” value in the data set on cHCI-10 was “limited effects”. Further, the microtubule structure entry with MDA-MB-231 cells [2] (2.5 nM) was “similarly organized and intact microtubule structures as untreated cells”; with MDA-MB-231 cells [2] (5 nM, interphase) it was “disseminated and depolymerized microtubule arrangement”. In the data set with cHCI-2, the “proliferation of cHCI-2 cells” value is “limited effects”. Also, the wound closure result with MDA-MB-231 cells [4] was “closed similar to untreated control cells”. The cell cycle distribution result in data set [3] is reported as “little effect on cell cycle progression”.
For the molecule `COc1ccc(/C=C\c2cc(OC)c(OC)c(OC)c2)cc1OP(=O)(O)O` [CA4P, fosbretabulin], in data set [5] (28 mg/kg (equivalent to 20 mg/kg CA4) IP 5 times/week), the “average tumor volume vs vehicle” value is listed as “significantly reduced”. Also, the body weight result in [5] (28 mg/kg IP 5 times/week) was “no significant loss in body weight”.
